Measurements as given in paper PMC8279484 (Journal of Medicinal Chemistry, 2021).

What was measured:
wild-type HEK-293 cells = assay: Intracellular calcium flux in wild-type HEK-293 (specificity control); assay type: cell-based, human
Description: To explore the mechanism of action through which the sLXm lead compound exerts the effects seen here, its interaction with the ALX/FPR2 receptor was investigated and agonist-induced intracellular calcium transients were measured using an engineered cell line stably overexpressing the ALX/FPR2 receptor and the Gαq subunit coupled to it (Figure S6). Wild-type HEK cells were used as controls, to verify the specificity of the agonism toward ALX/FPR2, as previously reported.[36] Briefly, prior to cell plating, sterile 96-well plates (black-sided with optically clear glass flat bottoms) were PDL-coated overnight. Subsequently, 2 × 10^5 wild-type cells and overexpressed cells/well were cultured for 18 h in DMEM complete media (containing Ca^2+ and Mg^2+) to facilitate adherence prior to labeling with Fluo-4 dye. After 1 h of incubation at 37 °C with Fluo-4, cells were gently washed twice and placed in 100% Hanks’ balanced salt solution (HBSS; 37 °C) before reading the fluorescence (485/535 nm), using a spectrophotometer conjugated with an injection system (Clariostar BMG LABTECH plate reader), allowing addition to the cells of controls (1 mM ATP, a GPCR purinergic agonist, 2 nM Wp, a synthetic ALX/FPR2 agonist) or experimental treatments [10 pM, 1 nM, and 100 nM LXA41 or (R)-6].

THP-1 LUCIA monocytes = assay: Extrinsic cytotoxicity: LDH release after LPS challenge; assay type: cell-based, human; settings: for % LDH release relative to LPS: LPS 24 h
Description: We investigated the potential cytotoxicity of all candidate sLXms by assaying LDH release.[50] The response to LPS was arbitrarily set to 100%, and values were expressed relative to this. As previously reported by others, LPS provokes LDH release.[51] […] Ultimately, untreated cells defined the spontaneous cell release thresholds.
Lactate dehydrogenase (LDH) was assayed in cell supernatants to investigate possible cytotoxicity of the lead compound. LDH is rapidly released into the culture medium after disruption of the plasma membrane.[67],[69] After 24 h of exposure to sLXms, vehicle, or controls, followed by LPS stimulation, as described above, THP-1-Lucia NF-κB-cell supernatants were collected and LDH was assayed. Cytotoxicity was evaluated relative to vehicle controls. Maximum releasable LDH was determined in cells lysed with 2% Triton-X-100 (Sigma-Aldrich, Ireland). LDH levels were assessed by reading the absorbance at 490 nm (protein) and 690 nm (background noise), using a spectrophotometer (SPECTRAMAX M2, Molecular Devices (U.K.) Limited).

IL-6 = assay: LPS-induced IL-6 release from THP-1 Lucia monocytes (multiplex electrochemiluminescence); assay type: cell-based, human; settings: for IC50: Homo sapiens, THP-1; for IC50 / Imax, IL-6 release: LPS 50 ng/mL, 24 h; for Imax, IL-6 release: concentration–response
Description: (§1) LXA41 and all of the tested sLXms were dissolved in ethanol and further diluted in a culture medium (final ethanol concentration 0.1%; equivalent concentrations were used as the vehicle control). Prior to in vitro experiments, THP-1-Lucia NF-κB cells were harvested and plated at 1 × 10^5 cells/well on 96-well plates and left to settle in the incubator at 37 °C, 95% humidity, and 5% CO2, in 0.1% FBS-containing media, pretreated for 30 min with increasing doses of LXA41, sLXms (from 10^–12 to 10^–6 M), or appropriate controls, followed by stimulation with 50 ng/mL LPS for 24 h. Untreated (Unt) or vehicle-treated (Veh) cells were used as negative controls; 1 pM (1R)-5, the (1R)-epimer of the benzo-mimetic, was used as a positive control for any aromatic mimetic; and, finally, we compared the observed effects to the conventional glucocorticoid dexamethasone (Dex) treatment, at 1 μM.
(§2) After 24 h of exposure to LXA41, sLXms, or vehicle, followed by LPS stimulation (50 ng/mL), as described above, THP-1-Lucia NF-κB-cell supernatants were collected and cleared by centrifugation. Concentrations of IFN-γ, IL-1β, IL-6, IL-8, IL-10, IL-12p70, and TNF-α in culture supernatants were assessed by electro-chemi-luminescent detection, using a commercially available human 96-well plate “multiplex” (several analytes in the same well) kit for tissue culture samples, according to the manufacturers’ guidelines.
The “coding” of the heat-map indicates the arbitrary criteria to assign points to each single PD component (efficacy = Imax or Emax; potency = IC50 or EC50; slope = HS) to generate a final (aggregate) relative PD score. If a single PD component was greater than the reference level (x > 1), then the single-component relative score was arbitrarily set to +1 (light green) or +2 (dark green). If a single PD component was equal to the reference level (x = 1), then the single-component relative score was arbitrarily set to 0 (gray). If a single PD component was smaller than the reference level (x < 1), then the single-component relative score was arbitrarily set to −1 (light red) or −2 (dark red). If the curve of a single PD component was best fitting to a flat line (x = 0), then the single-component relative score was arbitrarily set to −4 (purple) (Table S1).

NF-κB [1] = assay: TNF-α-induced NF-κB reporter (pNF-κB-SEAP) assay in vSMCs; assay type: cell-based, mouse; settings: (R)-6 1 nM, TNF-α 1 ng/mL 24 h; TNF-α alone 5-fold
Description: Mouse primary vascular SMCs were cultured at 37 °C in a humidified atmosphere of 95% air/5% CO2 and maintained in Dulbecco’s modified Eagle’s medium (DMEM; Life Technologies) supplemented with 25 mmol/L glucose with 10% (v/v) FBS. For treatments, media contained only 1% FBS.
NF-κB activity was determined by measuring secreted alkaline phosphatase in the culture supernatant using the SEAP Reporter Gene Assay System (Roche Australia). Cell experiments were performed six to eight times, and the values presented are the mean ± SEM from independent experiments.

IL-8 = assay: LPS-induced IL-8 release from THP-1 Lucia monocytes (multiplex electrochemiluminescence); assay type: cell-based, human; settings: Dex 1 μM; 1 1 nM; (R)-6 concentration not given
Description: as §1, §2

C57bl/6 mice = assay: Murine carrageenan-induced paw edema; assay type: in vivo, mouse; parameters: Paw swelling Index: Mean: unit not given here; settings: for % relative to carageenan-induced level: Veh = 100; for % relative to carageenan-induced level / % reduction relative to carageenan-induced level: (R)-6, (R)-17 2 μg/kg, Naproxen 50 mg/kg p.o.; for effect on inflammatory response (paw swelling), in words / Paw swelling Index: Mean: (R)-6, (R)-17 2 μg/kg ip, Naproxen 50 mg/kg po; for Paw swelling Index: Mean: n = 3
Description: Then, 50 μL of 1% carrageenan was injected with an equivalent volume of saline injected into the contralateral paw. Inflammation was presented as the difference in paw thickness over time using gauge (POCO 2T; Kroeplin, GmbH, Surrey, U.K.). Data are presented as mean ± SEM, n = 3 mice/treatment group.

NF-κB [2] = tested on: NF-κB; parameters: method as in PMID 30213823; settings: LXA4 1 0.1 nM; 2 1 nM; cited from earlier work

Row | IC50 (IL-6) [pM] | SMILES | Ca^2+ mobilization in wild-type HEK-293 cells (wild-type HEK-293 cells) | Imax, IL-6 release (IL-6) [%] | enhancement of LPS-induced secretion of IL-8 (IL-8) [fold] | % relative to carageenan-induced level (C57bl/6 mice; 4h) [%] | % relative to carageenan-induced level (C57bl/6 mice; 8h) [%] | % relative to carageenan-induced level (C57bl/6 mice; 24h) [%] | % relative to carageenan-induced level (C57bl/6 mice; 48h) [%] | % reduction relative to carageenan-induced level (C57bl/6 mice; 72h) [%] | % relative to carageenan-induced level (C57bl/6 mice; 72h) [%] | effect on inflammatory response (paw swelling), in words (C57bl/6 mice) | Paw swelling Index: Mean (C57bl/6 mice; Time 4h, 1% carrageenan) | Paw swelling Index: Mean (C57bl/6 mice; Time 8h) | Paw swelling Index: Mean (C57bl/6 mice; Time 24h) | Paw swelling Index: Mean (C57bl/6 mice; Time 48h) | Paw swelling Index: Mean (C57bl/6 mice; Time 72h) | other results
1 | 1 | CCCCC[C@@H](O)c1nc2ccccc2nc1/C=C/[C@@H](O)[C@@H](O)CCCC(=O)OC [(R)-6, Methyl (5S,6R,E)-5,6-Dihydroxy-8-(3-((R)-1-hydroxyhexyl)quinoxalin-2-yl)oct-7-enoate] | no calcium release was induced | 84 ± 2 | 2.5 | 116 | 63 | 72 | 53 | 10 | 110 | significantly reduced | 0.08 | 0.25 | 0.63 | 0.21 | 0.11 | attenuation of LPS-induced toxicity (LDH) (THP-1 LUCIA monocytes; LPS 50 ng/mL, 24 h, 1 pM–1 μM): 1.3- to 2.4 fold; % LDH release relative to LPS (THP-1 LUCIA monocytes; highest dose of (R)-6): 77 ± 10%; % LDH release relative to LPS (THP-1 LUCIA monocytes; lowest dose of (R)-6): 42 ± 4%; PD score, IL-6 release (IL-6; relative to LXA4 (1)): −2; rel. slope, IL-6 release (IL-6; relative to LXA4 (1)): 0.7; NF-κB activity, fold change relative to vehicle (NF-κB [1]): 3 fold; ΔΤR50: reduction of time taken to reduce the inflammatory response to 50% max (C57bl/6 mice; (R)-6 2 μg/kg ip, relative to vehicle-treated animals): 6 h
2 | – | CCCCC[C@@H](O)c1nc2ccccc2nc1/C=C/[C@H]1OC(C)(C)O[C@H]1CCCC(=O)OC [(R)-17, Methyl 4-((4S,5R)-5-((E)-2-(3-((R)-1-Hydroxyhexyl)quinoxalin-2-yl)vinyl)-2,2-dimethyl-1,3-dioxolan-4-yl)butanoate] | – | – | – | 103 | 84 | 92 | 149 | 120 | 220 | no effect | 0.07 | 0.33 | 0.80 | 0.60 | 0.22 | % reduction relative to carageenan-induced level (C57bl/6 mice; 4h): 3%; % reduction relative to carageenan-induced level (C57bl/6 mice; 24h): -8%; % reduction relative to carageenan-induced level (C57bl/6 mice; 48h): 49%
3 | 1 | CCCCC[C@H](O)/C=C/C=C\C=C\C=C\[C@@H](O)[C@@H](O)CCCC(=O)O [Compound 1, LXA4] | without effect | 99 ± 1 | 2.5 | – | – | – | – | – | – | – | – | – | – | – | – | effect on TNF-α-stimulated NF-κB activity (NF-κB [2]): reduced TNF-α-stimulated NF-κB activity
